Earlier results on two compounds are cited in patent publication US11179353B1, “Composition and method for prevention and treatment of radiation dermatitis” (Rythera Therapeutics, Inc., priority 2020, dated 2021).

One data set has as its system radiation skin damage. The following applies: retrospective analysis.
A further data set concerns irradiated breast tissue. The note with it: topical.

On to `NCCCNCCSP(=O)(O)O` [amifostine], for which the dermato-cytoprotective effects entry in the data set with radiation skin damage is given as “significant dermato-cytoprotective effects”.

For the compound `O=C1O[C@H]([C@@H](O)CO)C(O)=C1O` [Vitamin C], the “improvement in the results of irradiated breast tissue” value in the data set on irradiated breast tissue is on record as “without improvement”.
